# Results published in PubChem BioAssay AID1963964 (Molecular Pharmacology Branch, DTP, NCI, 2024).
# pIC50: −log10 of the molar value.
# Test system: 997726-040-R-J2-PDC tumor spheroids, viability
# Assay: Anticancer human tumor 997726-040-R-J2-PDC patient-derived squamous cell lung carcinoma cell line growth inhibition [PI3K]
# Settings: spheroids with HUVEC and MSC; for pIC50: curve of first compound; for viability, T/C: stronger effect = lower value
# In short: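 Tumor cells were combined with HUVEC and MSCs into spheroids, then dosed with PI3K-inhibitor combinations over half-log ranges capped near clinical Cmax or 10 microM.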
# 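Also: spheroids exposed to compounds for seven days before readout.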
smiles,measurement,setting,value
CC(C)NCC(C(=O)N1CCN(c2ncnc3c2C(C)CC3O)CC1)c1ccc(Cl)cc1 (configuration not stated) + Cc1nc(NC(=O)N2CCCC2C(N)=O)sc1-c1ccnc(C(C)(C)C(F)(F)F)c1,pIC50,second compound 0.0316 µM,6.57
same,pIC50,second compound 0.1 µM,6.57
same,pIC50,second compound 0.316 µM,6.92
same,pIC50,second compound 1 µM,> 7.50
same,pIC50,second compound 3.16 µM,> 7.50
same,pIC50,second compound 10 µM,> 7.50
same,"viability, T/C","second compound 0.0316 µM, first compound 0.0316 µM",73.4%
same,"viability, T/C","second compound 0.0316 µM, first compound 0.1 µM",65.9%
same,"viability, T/C","second compound 0.0316 µM, first compound 0.316 µM",47.7%
same,"viability, T/C","second compound 0.0316 µM, first compound 1 µM",23.8%
same,"viability, T/C","second compound 0.0316 µM, first compound 3.16 µM",12.7%
same,"viability, T/C","second compound 0.0316 µM, first compound 10 µM",8.8%
same,"viability, T/C","second compound 0.1 µM, first compound 0.0316 µM",71.6%
same,"viability, T/C","second compound 0.1 µM, first compound 0.1 µM",66.8%
same,"viability, T/C","second compound 0.1 µM, first compound 0.316 µM",46.6%
same,"viability, T/C","second compound 0.1 µM, first compound 1 µM",25.9%
same,"viability, T/C","second compound 0.1 µM, first compound 3.16 µM",15.2%
same,"viability, T/C","second compound 0.1 µM, first compound 10 µM",10.6%
same,"viability, T/C","second compound 0.316 µM, first compound 0.0316 µM",55.9%
same,"viability, T/C","second compound 0.316 µM, first compound 0.1 µM",52.5%
same,"viability, T/C","second compound 0.316 µM, first compound 0.316 µM",39%
same,"viability, T/C","second compound 0.316 µM, first compound 1 µM",22.4%
same,"viability, T/C","second compound 0.316 µM, first compound 3.16 µM",11.2%
same,"viability, T/C","second compound 0.316 µM, first compound 10 µM",9.52%
same,"viability, T/C","second compound 1 µM, first compound 0.0316 µM",49.5%
same,"viability, T/C","second compound 1 µM, first compound 0.1 µM",37.2%
same,"viability, T/C","second compound 1 µM, first compound 0.316 µM",34%
same,"viability, T/C","second compound 1 µM, first compound 1 µM",21%
same,"viability, T/C","second compound 1 µM, first compound 3.16 µM",10.5%
same,"viability, T/C","second compound 1 µM, first compound 10 µM",6.76%
same,"viability, T/C","second compound 3.16 µM, first compound 0.0316 µM",33.2%
same,"viability, T/C","second compound 3.16 µM, first compound 0.1 µM",27.5%
same,"viability, T/C","second compound 3.16 µM, first compound 0.316 µM",25%
same,"viability, T/C","second compound 3.16 µM, first compound 1 µM",16.5%
same,"viability, T/C","second compound 3.16 µM, first compound 3.16 µM",7.98%
same,"viability, T/C","second compound 3.16 µM, first compound 10 µM",4.28%
same,"viability, T/C","second compound 10 µM, first compound 0.0316 µM",15.8%
same,"viability, T/C","second compound 10 µM, first compound 0.1 µM",10.9%
same,"viability, T/C","second compound 10 µM, first compound 0.316 µM",10.7%
same,"viability, T/C","second compound 10 µM, first compound 1 µM",5.86%
same,"viability, T/C","second compound 10 µM, first compound 3.16 µM",3.95%
same,"viability, T/C","second compound 10 µM, first compound 10 µM",3.36%
